Converted amounts (≈) assume the structure as drawn.
Tests used:
[1] = physchem; details: pH 7.4 buffer
[2] = physchem
[3] = physchem; remark: listed apart in the source
[4] = in vitro; details: hepatocytes
[5] = in vitro; details: human
[6] = physchem; details: octan-1-ol/water
[7] = in vitro; details: human, plasma
[8] = in vitro; details: SD, HW or BN, rat, plasma
[9] = in vitro; details: Beagle, dog, plasma
[10] = in vitro; details: human, hepatocytes

Row | SMILES | solubility thermodynamic [1] [µM] | pKa [2] | pKa [3] | hepatocyte CLint [4] [µL/min/1e6 cells] | microsomal CLint ([5]; microsomes) [µL/min/mg] | logD ([6]; pH 7.4, LogD7.4) | fraction unbound at 5 h ([7]; PPB) | fraction unbound at 5 h [8] | fraction unbound at 5 h [9] | microsomal CLint ([5]; liver microsomes) [µL/min/mg] | hepatocyte CLint [10] [µL/min/1e6 cells] | fraction unbound at 5 h [7] | logD ([6]; pH 7.4)
1 | Cc1cc(CN2Cc3ccccc3C2C(=O)Nc2ccc(Cl)cc2Cl)ccc1OCC(=O)O (centres undefined) | 479 (≈ 232 µg/mL) | 5.6 | 3.1 |  |  | 2.62 | 0.0013 | 0.0014 |  |  |  |  | 
2 | Cc1cc(CN2Cc3ccccc3C[C@H]2C(=O)Nc2ccc(Cl)cc2Cl)ccc1OCC(=O)O | 347 (≈ 173 µg/mL) | 6.2 | 3.1 | 31 | 11 | 2.41 |  |  |  |  |  |  | 
3 | CCC(CC)NC(=O)c1c(C)nn(-c2ccccc2)c1NS(=O)(=O)c1ccc(C)cc1 |  |  | 4.2 | 13.5 |  | 1.35 | 0.0049 | 0.03 | 0.0418 | 23.6 | < 3 |  | 
4 | Cc1ccc2c(c1)c(S(=O)(=O)c1ccc(Cl)cc1)c(C)n2CC(=O)O |  |  | 3.7 |  |  | 0.06 | 0.0052 |  | 0.0167 | 7 |  |  | 
5 | Cc1nn(C2CCOCC2)c(NS(=O)(=O)c2ccc(C3CC3)cc2)c1C(=O)N[C@@H](C)C(C)(C)C |  |  | 5 |  |  | 1.23 | 0.0736 | 0.11 | 0.107 |  |  |  | 
6 | COCCOc1nc(N)c2[nH]c(=O)n(Cc3ccccc3)c2n1 |  | 2.4 | 9.5 |  |  | 2.26 | 0.105 | 0.376 |  | < 3 |  |  | 
7 | Cc1ccc2c(c1)c(-c1ccnc3cc(Cl)ccc13)c(C)n2CC(=O)O |  | 2.6 | 5 |  |  | 1.59 | 0.0018 |  | 0.0035 | 4 |  |  | 
8 | O=C(O)c1cccc(N2CCC(CN3CCC(Oc4ccc(Cl)c(Cl)c4)CC3)CC2)c1 | 141 (≈ 65.5 µg/mL) | 8.7 | 4.3 |  |  |  |  |  |  | 6 |  |  | 
9 | CN(C)c1ccccc1S(=O)(=O)NC(=O)N1CCC(N2CCC(Oc3ccc(Cl)c(Cl)c3)CC2)CC1 |  | 8.6 | 6.6 |  |  | 1.74 | 0.0175 |  |  | 33 |  |  | 
10 | O=C(NC[C@@H](O)CN1CCC(Oc2ccc(Cl)c(Cl)c2)CC1)c1c[nH]c(=O)cc1C(F)(F)F |  | 7.7 | 8.3 |  |  | 2.71 |  |  |  | 6 |  |  | 
11 | Nc1cc(-c2cc(C(F)(F)F)ccc2Oc2cc(F)c(S(=O)(=O)Nc3ncns3)cc2Cl)ccn1 |  | 6.4 | 3.18 |  |  |  |  | 0.0035 |  |  |  |  | 
12 | Nc1nc(O)c(Cl)c(-c2ccccc2)n1 |  | 2.35 | 7.45 |  |  |  |  | 0.0661 |  |  |  | 0.0477 | 
13 | CCCN(CCC)CCc1ccc(O)c(NC(C)=O)c1 |  | 10.8 | 8.75 |  |  |  |  |  |  | 36 |  |  | 
14 | CCCSc1ccc2nc(NC(=O)OC)[nH]c2c1 [ALBENDAZOLE] | 1.6 (≈ 0.425 µg/mL) | 5.88 | 10.5 | 83.2 | 34.7 |  |  | 0.0581 |  |  |  | 0.0457 | 3.24
15 | CCn1cc(C(=O)O)c(=O)c2cc(F)c(N3CCNCC3)nc21 [ENOXACIN] |  | 8.76 | 6.2 |  |  | -0.83 | 0.656 |  |  |  |  |  | 
16 | CN1CCN(CC(=O)N2c3ccccc3C(=O)Nc3cccnc32)CC1 [PIRENZEPINE] |  | 7.88 | 10.7 | 6.76 |  | -0.49 | 0.76 |  |  | < 3 |  |  | 

More lines, main results first:

Row | solubility thermodynamic [1] [µM] | pKa [2] | pKa [3] | hepatocyte CLint [4] [µL/min/1e6 cells] | microsomal CLint ([5]; microsomes) [µL/min/mg] | logD ([6]; pH 7.4, LogD7.4) | fraction unbound at 5 h ([7]; PPB) | fraction unbound at 5 h [8] | fraction unbound at 5 h [9] | microsomal CLint ([5]; liver microsomes) [µL/min/mg] | hepatocyte CLint [10] [µL/min/1e6 cells] | SMILES | fraction unbound at 5 h [7] | logD ([6]; pH 7.4)
17 | 813 (≈ 390 µg/mL) | 6.7 | 2.9 | 43.4 | 101 |  |  |  |  |  |  | Cc1cc(CN(CC(=O)Nc2ccc(Cl)cc2Cl)C2CCCCC2)ccc1OCC(=O)O |  | 
18 |  | 2.5 | 8.19 |  | 21.4 |  |  |  |  |  |  | CCC(=O)NC(c1cccs1)c1cc(Cl)c2cccnc2c1O (centres undefined) |  | 
19 |  |  | 3.4 |  |  | -0.43 | 0.0268 |  | 0.0082 | < 3 |  | CCS(=O)(=O)c1ccc(-c2cc(Cl)ccc2OCC(=O)O)c(Cl)c1 |  | 
20 | 77.6 (≈ 42.8 µg/mL) | 8.8 | 5.05 | 31 |  | 1.68 | 0.0033 |  |  | 7 |  | COc1ccc(COc2nc(Br)cnc2NS(=O)(=O)c2ccc(C)cc2)cc1OCCN(C)C |  | 
21 |  | 9.3 | 3.7 | < 3 |  |  |  |  |  | 12 |  | O=C(O)COc1cccc(N2CCC(CN3CCC(Oc4ccc(Cl)c(Cl)c4)CC3)CC2)c1 |  | 
22 |  | 8.2 | 2.9 |  | < 3 | 1.09 | 0.013 |  |  |  |  | O=C(O)COc1cccc(C(=O)N2CCC(N3CCC(Oc4ccc(Cl)c(Cl)c4)CC3)CC2)c1 |  | 
23 |  | 8.6 | 3.4 |  |  | 1.23 | 0.0499 |  |  | < 3 |  | O=C(O)c1cccc(C(=O)N2CCC(N3CCC(Oc4ccc(Cl)c(Cl)c4)CC3)CC2)c1 |  | 
24 |  | 8.1 | 3.3 |  |  | 1.5 | 0.186 |  |  | < 3 |  | O=C(NS(=O)(=O)c1ccccc1)N1CCC(N2CCC(Oc3ccc(Cl)c(Cl)c3)CC2)CC1 |  | 
25 |  | 8.45 | 3 |  | 11 | 1.79 | 0.194 |  |  |  |  | O=C(NS(=O)(=O)c1ccc(F)cc1)N1CCC(N2CCC(Oc3ccc(Cl)c(Cl)c3)CC2)CC1 |  | 
26 |  | 8.2 | 2.5 |  |  | 2.59 | 0.329 |  |  | 5 |  | O=C(NS(=O)(=O)c1ccc(Cl)cc1)N1CCC(N2CCC(Oc3ccc(Cl)c(Cl)c3)CC2)CC1 |  | 
27 |  | 8.3 | 3.6 |  |  | 1.39 | 0.0127 |  |  | < 3 |  | COc1ccc(S(=O)(=O)NC(=O)N2CCC(N3CCC(Oc4ccc(Cl)c(Cl)c4)CC3)CC2)cc1 |  | 
28 |  | 8.7 | 3.2 |  |  | 2.2 | 0.179 |  |  | 3 |  | Cc1ccc(S(=O)(=O)NC(=O)N2CCC(N3CCC(Oc4ccc(Cl)c(C)c4Cl)CC3)CC2)cc1 |  | 
29 |  | 7.5 | 8.6 |  |  | 2.37 |  |  |  | < 3 |  | Cc1cc(Cl)ccc1OC1CCN(C[C@H](O)CNC(=O)c2c[nH]c(=O)cc2C(F)(F)F)CC1 |  | 
30 |  | 10.1 | 3.19 |  |  |  | 0.02 | 0.0532 | 0.0437 |  |  | O=S(=O)(Nc1ncns1)c1cc(F)c(Oc2ccc(Cl)cc2-c2ccnn2C2CNC2)cc1F |  | 
31 |  |  | 6.2 | 69 | 23 | 1.64 | 0.0042 |  | 0.0049 |  |  | N#Cc1ccc(NC(=O)Nc2ccccc2Br)c2nn[nH]c12 |  | 
32 | 4.8 (≈ 2.06 µg/mL) |  | 5.5 | < 3 | 8.86 |  | 0.0041 | 0.0042 | 0.0196 |  |  | CN(C)S(=O)(=O)NC(=O)CCCc1c(-c2ccc(F)cc2)[nH]c2ccc(C#N)cc12 |  | 
33 |  |  | 6.2 |  |  |  | 0.0024 | 0.0055 | 0.0048 |  | 5.62 | Nc1[nH]ncc1-c1cc(Cl)ccc1Oc1cc(F)c(S(=O)(=O)Nc2cscn2)cc1Cl [PF-05089771] |  | 

Source: ChEMBL document CHEMBL3301361, “Experimental in vitro DMPK and physicochemical data on a set of publicly disclosed compounds”
